Experimental data published in patent US8426559B2, “Injectable β-hairpin peptide hydrogel that kills methicillin-resistant Staphylococcus aureus” (University of Delaware, priority 2009, dated 2013).
Non-standard residues stand in square brackets, D forms with d. Residues, ends and D or L forms follow the SMILES beside them.

Experiments:
[1] = tested on: C3H10t1/2 mesenchymal stem cells; assay: Cytotoxicity of hydrogel towards mammalian cells, live/dead viability assay; format: cell-based, murine
Description: The confocal images show live/dead viability assays performed using murine C3H10t1/2 mesenchymal stem cells that had been cultured for 24 h on (A) a 2 wt % MARG1 hydrogel surface and on (B) a TCTP control surface. This cell line was chosen because these cells are sensitive to their environment and thus good indicators of a material's cytotoxic properties.
The images in FIGS. 5A,B are rendered in black and white, where the light areas represent cells that fluoresce green (live cells) and dark areas represent cells that fluoresce red (dead cells).
C3H10t1/2 mesenchymal stem cells (ATCC # CCL-226) were cultured using Dulbecco's Modified Eagle's Medium (DMEM, Sigma Aldrich, D6546) supplemented with 10% Fetal Bovine Serum, 5 mM L-Glutamine, 50 μg/mL Gentamicin at 37° C. in 5% CO2. Cells were cultured in T75 cell culture flasks. Cells were kept in culture for seven passages and used for cellular viability on passage number 7. For cell plating, cells were trypsinized and counted using a hemacytometer. The resultant cell suspension was introduced to the hydrogel and control surfaces such that a cell loading density of 30,000 cells/cm^2 was achieved. These samples were incubated for 24 hours at 37° C., 5% CO2. […]

[2] = tested on: MSSA (methicillin-susceptible Staphylococcus aureus, ATCC 25923); assay: Antibacterial assay: bacteria introduced onto hydrogel-coated TCTP surface, proliferation by OD625nm; format: cell-based; details: 2 wt % hydrogel on TCTP, all bacterial cell loading densities, 24 h, compared to uncoated surface
Description: (§1) The antibacterial activity of MARG1 hydrogels was assessed via two distinct assays. In the first assay, bacteria were introduced to the surface of tissue culture treated polystyrene (TCTP) coated with a ˜1-2 mm layer of the gel and its ability to inhibit bacterial proliferation was assessed. This assay measures the ability of MARG1 gels to thwart new infection at a particular site. Here, gels were formed directly on the polystyrene surface without the aid of shear-thin delivery. In the second assay, MARG1 gels were shear-thin delivered via syringe to agar surfaces infected with bacteria, and the ability of the gel to kill bacteria on contact was measured. This assay simulates the introduction of the MARG1 gel via syringe to a bacterial contaminated surface, such as a wound.
Hydrogels for the antibacterial assays were prepared in separate wells of 96-well tissue culture-treated polystyrene plates (Costar 3595). […]
(§2) For each assay, 100 μL of bacteria-free TSB was introduced onto the surface of the hydrogels. […] After this, bacterial growth was monitored by measuring OD625nm of the liquid above the gel by adding 100 μL of bacteria-free TSB to the surfaces, gently mixing and transferring the supernatant to a cuvette. Corrected OD625nm values were calculated to correct for dilution and to normalize for scattering that occurs for each individual bacterial strain. […]

[3] = tested on: MRSA (methicillin-resistant Staphylococcus aureus, ATCC 33591); assay: as above; format: cell-based; details: 2 wt % hydrogel on TCTP, 24 hr at 37° C.
Description: as §1, with “This assay simulates the introduction of the MARG1 gel via syringe to a bacterial contaminated surface, such as a wound.” left out
The gels were incubated for 24 hr at 37° C., and bacterial proliferation was quantitated by light scattering as described in Salick, D. A.; Kretsinger, J. K.; Pochan, D. J.; Schneider, J. P. J. Am. […]
as §2

| Compound | Cytotoxicity towards mammalian cells ([1]; C3H10t1/2 cells cultured 24 h on 2 wt % hydrogel surface) | Viability of cells cultured on hydrogel surface versus TCTP control ([1]; C3H10t1/2 cells, 24 h, 2 wt % hydrogel surface) | MSSA proliferation on hydrogel-coated surface (OD) [2] | MRSA proliferation on hydrogel-coated surface (OD) ([3]; challenged with 2×10^8 CFU/dm^2 MRSA) | MRSA proliferation on hydrogel-coated surface (OD) ([3]; lower CFUs of MRSA) |
| --- | --- | --- | --- | --- | --- |
| CC(C)[C@H](N)C(=O)N[C@@H](CCCCN)C(=O)N[C@H](C(=O)N[C@@H](CCCCN)C(=O)N[C@H](C(=O)N[C@@H](CCCNC(=N)N)C(=O)N[C@H](C(=O)N[C@@H](CCCCN)C(=O)N[C@H](C(=O)N1CCC[C@@H]1C(=O)N1CCC[C@H]1C(=O)N[C@H](C(=O)N[C@@H](CCCCN)C(=O)N[C@H](C(=O)N[C@@H](CCCCN)C(=O)N[C@H](C(=O)N[C@@H](CCCNC(=N)N)C(=O)N[C@H](C(=O)N[C@@H](CCCCN)C(=O)N[C@H](C(N)=O)C(C)C)C(C)C)C(C)C)C(C)C)[C@@H](C)O)C(C)C)C(C)C)C(C)C)C(C)C [MARG1, VKVKVRVKV^DPPTKVKVRVKV-NH2] (H-VKVKVRVKV[dP]PTKVKVRVKV-NH2) | non-cytotoxic | no significant difference |  |  |  |
| VKVKVKVKV^DPPTKVKVKVKV-NH2 [MAX1] |  |  | can inhibit bacterial proliferation | uninhibited MRSA proliferation | inhibiting MRSA at lower CFUs |
